In paper PMC9861623, “New Ferulic Acid and Amino Acid Derivatives with Increased Cosmeceutical and Pharmaceutical Potential” (Pharmaceutics, 2022):
Several values for one entry are separate records, joined by “and”; a condition that tells them apart may be missing. Equal values may be shown once. Read-outs that look alike come from different tables or passages of the source.

Key:
cancer cells (HepG2) = system: cancer cells (HepG2); design: method as in PMID 29077251; conditions: HepG2, 500 μg mL^−1; cited from earlier work
NRK-52E cells = system: NRK-52E cells; design: method as in doi:10.1016/j.jddst.2022.103621; conditions: 75 μM, high glucose environment; cited from earlier work
NIH-3T3 cells = system: NIH-3T3 cells; design: method as in PMID 29077251; conditions: NIH-3T3, 500 μg mL^−1; cited from earlier work
L929 cells [1] = system: L929 cells; design: method as in PMID 24344870; conditions: L929, 72 h, cited from earlier work
L929 cells [2] = system: L929 cells; design: method as in PMID 32485864; conditions: L929, 24 h, highest tested concentration of 2.5–40 mg L^−1, Trypan blue; cited from earlier work
L929 cells [3] = system: L929 cells; design: method as in PMID 32485864; conditions: L929, 24 h, 2.5–40 mg L^−1, MTT assay; cited from earlier work
[4] = system: Murine fibroblasts (L929); assay: Cytotoxicity, PrestoBlue resazurin-based cell viability assay; conditions: 0.03125–2.0 mM (any dosage), 24 h
Description: The cell biocompatibility was evaluated using a PrestoBlue HS Cell Viability Reagent (Thermo Fisher Scientific, MA USA) based on the reduction of the resazurin to highly fluorescent resorufin, of which the amount is directly correlated to the number of living cells. […] The cells without tested compounds were used as control. The interaction of tested compounds without cells and Prestoblue Reagent (blank wells) was excluded. After 24 h of treatment, optical microscopy imaging of L929 cells was performed using Smart Fluorescent Cell Analyzer Microscope JuLi (Seoul, Korea). Next, the PrestoBlue reagent (10 μL) was added to each well and incubated for 30 min. The fluorescence was measured using a spectrophotometric microplate reader (Infinite 200 Pro, Tecan, Männedorf, Switzerland) at ex/em: 560/594 nm. The readings were acquired from at least three independent experiments (each conducted in triplicate) and normalized to the control (100% viability).

[5] = Skin permeation in Franz diffusion cells; assay type: in vitro ADME, pig; conditions: 24 h, 10 mg as FA applied
Description: In the experiment, abdominal porcine skin coming from the local slaughterhouse was used. Pig skin was chosen because of its similar permeability to human skin [34, 35]. The fresh abdominal porcine skin was washed several times in PBS buffer pH 7.4. The skin of 0.5 mm in thickness was dermatomed and divided into 2 cm × 2 cm pieces. The skin samples were wrapped in aluminum foil and stored at −20 °C until use, not longer than 3 months. According to Badran et al., this storage time at this temperature is safe to keep skin barrier properties. Immediately before the experiment, the skin samples were slowly thawed at room temperature for 30 min and then were hydrated by PBS pH 7.4 [37, 38, 39, 40]. Such prepared skin was mounted on donor chamber. Only the undamaged skin pieces with an even thickness were chosen for experiments. The integrity of the skin was checked by impedance measurement using an LCRmeter4080 (Conrad Electronic, Hirschau, Germany), operated in parallel mode at an alternating frequency of 120 Hz (error at kΩ values < 0.5%). The tips of measuring probes were immersed in the donor and acceptor chamber containing PBS (pH 7.4), as described previously. Only skin samples of impedance > 3 kΩ were applied as such impedance is similar to the electrical resistance of human skin [42].
The concentration of FA and its derivatives in the acceptor fluid and in the fluid obtained by skin extraction after permeation experiment was assessed using liquid chromatography system (Knauer, Berlin, Germany) consisting of a model 2600 UV detector, Smartline model 1050 pump and Smartline model 3950 autosampler. HPLC was controlled by ClarityChrom 2009 software. The detector was operated at 280 nm. The separations were performed on 125 mm × 4 mm ID chromatographic column filled with Hyperisil ODS (C18), particle size 5 µm, in isocratic mode. The mobile phase consisted of acetonitrile, 1% acetic acid, and MeOH (47/47/6 v/v/v) and was pumped at flow rate of 1 mL min^−1. The column temperature was set at 25 °C, and the injection volume was 20 µL.
(§1) The permeation experiments were performed using Franz diffusion cells (Phoenix DB-6, ABL&E-JASCO, Wien, Austria). The diffusion was 1 cm^2. The volume of the acceptor chamber was 8 mL. This chamber was filled with PBS solution (pH 7.4). During experiment, a constant temperature of 37.0 ± 0.5 °C was maintained in each diffusion unit. The acceptor chamber content was stirred with a magnetic stirring bar at the same speed for all cells. The prepared pig skin was mounted on each donor chamber. As previously mentioned, only undamaged skin pieces with an even thickness were chosen for experiments. Thereafter, the hydrogel or emulsion vehicle/preparation in 1 g portion was put on the skin in donor cells. For comparison, 1 mL ethanolic solution containing either FA or its derivatives was applied to another donor chamber. The amount of the FA and its derivatives applied on the skin expressed as the mass of ferulic acid was 0.01 g and was the same for each carrier. The penetration experiments were carried out for 24 h. The samples were collected after 1 h, 2 h, 3 h, 4 h, 5 h, 6 h, 8 h, and 24 h. Aliquots of the acceptor fluid (0.5 mL) were withdrawn and to each acceptor chamber the same volume of fresh PBS solution was added. The FA and its derivatives’ concentrations in the acceptor fluid were measured by HPLC method (Section 2.6.2). The cumulative mass (µg·cm^−2) and penetration rate (µg·cm^−2·h^−1) were calculated. The acceptor fluid collected after 24 h of permeation was also measured for antioxidant activity and total polyphenol content (as described in Section 2.5.1 and Section 2.5.2).

[6] = DPPH antioxidant activity of acceptor fluid after 24 h permeation; design: species or system pig; conditions: after 24 h penetration
Description: To determine the antioxidant capacity of ferulic acid and its derivatives the DPPH method was used. The analyses were performed using the Hitachi UV-Vis Spectrophotometer U-5100 at the wavelength λ = 517 nm. Trolox (6-hydroxy-2,5,7,8-tetramethylchroman-2-carboxylic acid) was used as a reference substance. The antioxidant activity was expressed as %RSA and mmol Trolox dm^−3. […]. Blank samples without antioxidant were prepared in the same way. The tubes were wrapped in aluminum foil and were sealed with a stopper and then incubated for 10 min at room temperature. After this time, spectrophotometric measurements were carried out in triplicate. For determination of antioxidant activity of the acceptor fluid after 24 h of permeation and solutions obtained by extraction of the skin obtained after penetration study, 0.15 mL samples of each solutions were separately added to 2.85 mL of DPPH solution and spectrophotometric measurements were performed. The antioxidant activity was expressed as mmol Trolox·dm^−3.
as §1

COc1cc(/C=C/C(=O)O)ccc1O [Ferulic acid]
viability of cancer cells (cancer cells (HepG2)): significantly decreased the viability
effect in cultured NRK-52E cells (NRK-52E cells): countered excessive ROS generation, induced autophagy, and inhibited apoptotic death of cells
toxicity on normal cells (NIH-3T3 cells): did not cause any toxicity
cell viability (L929 cells [1]; 500 μg mL^−1 (2.57 mM)): 67%
cell viability (L929 cells [1]; 1000 μg mL^−1 (5.15 mM)): 28%
cell viability (L929 cells [2]): 80%
effect on cell viability/proliferation (L929 cells [3]): no effect on cell viability/proliferation
Difference in L929 viability between control and treated cells [4]: No statistically significant differences in viability
Cumulative Permeation Mass ([5]; from emulsion): 104.93 ± 7.63 a µg FA·cm^−2
Cumulative Permeation Mass ([5]; from hydrogel): 289.36 ± 38.50 a µg FA·cm^−2
Cumulative Permeation Mass ([5]; from solution in 70% (v/v) ethanol): 368.57 ± 2.94 a µg FA·cm^−2
DPPH antioxidant activity of the acceptor fluid ([6]; emulsion): 0.057 ± 0.004 a mmol Trolox dm^−3
DPPH antioxidant activity of the acceptor fluid ([6]; ethanol solution, listed as FA): 0.079 ± 0.010 mmol Trolox dm^−3 and 0.079 ± 0.010 a mmol Trolox dm^−3
DPPH antioxidant activity of the acceptor fluid ([6]; hydrogel): 0.067 ± 0.004 a mmol Trolox dm^−3
